Literature values in patent publication EP1935424A1, “PHARMACEUTICAL COMPOSITIONS COMPRISING COMBINED ANTIDIABETIC SUBSTANCES FOR USE IN DIABETES MELLITUS” (ESPINOZA ABDALA, Leopoldo de Jesús, priority 2005, dated 2007).
Like-named read-outs stand apart in the source and are kept apart here.

Experiments:
[1] = for absorption: oral / gastrointestinal tract, in words; for half-life (clearance half-life in plasma): parent compound; for eliminated by renal route without being metabolized: share of the administered dose as non-metabolized drug; for metabolized by: enzymes named; for bioavailability / tmax (plasma peak following administration): oral
[2] = route of clearance, table Sulfonylureas: Pharmacokinetc Properties
[3] = table Sulfonylureas: Pharmacokinetc Properties, unit not given

Compound	half-life (clearance half-life in plasma) [1]	Clearance [1, 2]	Action duration [1, 3]	binds to plasma proteins (plasma proteins)	metabolized by [1]	tmax (plasma peak following administration) [1] [h]	further results
C[C@H]1O[C@H](O[C@H]2[C@H](O)[C@@H](O)[C@@H](O[C@H]3[C@H](O)[C@@H](O)C(O)O[C@@H]3CO)O[C@@H]2CO)[C@H](O)[C@@H](O)[C@@H]1N[C@H]1C=C(CO)[C@@H](O)[C@H](O)[C@H]1O (some centres unmarked) [Acarbose]	–	–	–	–	–	–	absorbed orally ([1]; in vivo, po): < 2%; absorption [1]: poorly absorbed orally
CCCNC(=O)NS(=O)(=O)c1ccc(Cl)cc1 [Chlorpropamide]	24 to 48 h	Hepatic and renal	24-72	–	–	–	eliminated by renal route without being metabolized [1]: about 20%
COc1ccc(Cl)cc1C(=O)NCCc1ccc(S(=O)(=O)NC(=O)NC2CCCCC2)cc1 [Glibenclamide]	–	–	–	–	–	–	Action duration ([1]; in vivo): 12-16; Clearance ([1]; in vivo): Hepatic
Cc1ccc(S(=O)(=O)NC(=O)NN2CC3CCCC3C2)cc1 (centres unmarked) [Glicazide]	–	Hepatic	12-13	–	–	–	–
CCC1=C(C)CN(C(=O)NCCc2ccc(S(=O)(=O)NC(=O)N[C@H]3CC[C@H](C)CC3)cc2)C1=O [Glimepiride]	–	Hepatic and renal	24	–	–	–	–
Cc1cnc(C(=O)NCCc2ccc(S(=O)(=O)NC(=O)NC3CCCCC3)cc2)cn1 [Glipizide]	–	–	5-10	–	–	–	–
COc1ccc2c(c1)C(=O)N(CCc1ccc(S(=O)(=O)NC(=O)NC3CCCCC3)cc1)C(=O)C2(C)C [Gliquidone]	–	Hepatic	2-4	–	–	–	–
CN(C)C(=N)N=C(N)N [Metformin]	–	–	–	–	–	–	absorption is completed in ([1]; gastrointestinal tract): about 6 hours; excreted by renal route ([1]; of an oral dose in 12 hours): 90%
CC(C)[C@H]1CC[C@H](C(=O)N[C@H](Cc2ccccc2)C(=O)O)CC1 [Nateglinide]	about 1.5 hours	–	–	97%	CYP3A4 and CYP2C9	1	bioavailability [1]: greater than 70%; absorption [1]: rapidly absorbed; eliminated by renal route without being metabolized [1]: About 16%
CCc1ccc(CCOc2ccc(CC3SC(=O)NC3=O)cc2)nc1 (centres unmarked) [Pioglitazone]	5 to 6 h	–	–	more than 99%	CYP3A4 and CYP2C9	2	bioavailability [1]: ~80%; clearance half-life for the metabolites ([1]; three active metabolites): 16 to 24 h
CCOc1cc(CC(=O)N[C@@H](CC(C)C)c2ccccc2N2CCCCC2)ccc1C(=O)O [Repaglinide]	about 1 hours	–	–	more than 98%	cytochrome P450 and by glucuronidases	1	eliminated, time following administration ([1]; in vivo): 4 to 6 h; absorption [1]: rapidly absorbed; insulinotropic response to a meal occurs after taking an oral dose ([1]; patients with type 2 diabetes, oral dose): ≤ 30 min
CN(CCOc1ccc(CC2SC(=O)NC2=O)cc1)c1ccccn1 (centres unmarked) [Rosiglitazone]	3 to 4 h	–	–	99.8%	cytochrome P450 isoenzymes 2C8 and 2C9	1	eliminated in feces ([1]; in vivo): 23%; eliminated in urine ([1]; in vivo): 64%; bioavailability [1]: 99%
